# Data taken from US8119692B2 (priority 2007, dated 2012).
# Molecular target: Lethal factor protease (Bacillus anthracis, UniProt P15917)
# Assay: biochemical
# Details: LF (FRET) Ki^app
# Chain of Lethal factor protease (P15917 34-809 limits assumed): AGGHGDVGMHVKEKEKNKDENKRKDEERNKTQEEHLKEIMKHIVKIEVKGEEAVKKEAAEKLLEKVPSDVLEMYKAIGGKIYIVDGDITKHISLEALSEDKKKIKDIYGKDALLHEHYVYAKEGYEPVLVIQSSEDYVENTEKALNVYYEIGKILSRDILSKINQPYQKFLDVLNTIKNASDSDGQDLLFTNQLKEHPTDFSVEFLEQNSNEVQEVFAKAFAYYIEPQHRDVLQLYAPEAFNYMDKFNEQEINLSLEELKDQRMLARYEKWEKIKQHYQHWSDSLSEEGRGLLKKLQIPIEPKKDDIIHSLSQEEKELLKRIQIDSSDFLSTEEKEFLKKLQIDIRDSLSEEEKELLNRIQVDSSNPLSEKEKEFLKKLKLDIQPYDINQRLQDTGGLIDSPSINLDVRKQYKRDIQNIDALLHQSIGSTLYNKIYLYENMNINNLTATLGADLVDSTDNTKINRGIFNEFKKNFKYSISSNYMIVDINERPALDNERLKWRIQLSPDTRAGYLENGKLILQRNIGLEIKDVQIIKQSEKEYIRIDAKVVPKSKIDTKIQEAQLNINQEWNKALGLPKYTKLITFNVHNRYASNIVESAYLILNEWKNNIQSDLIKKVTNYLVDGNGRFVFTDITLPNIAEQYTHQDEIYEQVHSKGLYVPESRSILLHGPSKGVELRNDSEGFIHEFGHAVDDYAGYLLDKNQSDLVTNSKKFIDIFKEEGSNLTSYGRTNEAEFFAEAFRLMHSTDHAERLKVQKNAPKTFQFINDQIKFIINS
row,SMILES,Ki [nM]
1,"CO[C@H](C[C@H](CCN(C)CCOc1ccccc1)C(=O)NO)c1ccc(F)cc1 [Compound 167890, (2S,4R)-4-(4-fluorophenyl)-N-hydroxy-4-methoxy-2-(2-(methyl(2-phenoxyethyl)amino)ethyl)butanamide]",1600
2,"CCCC[C@H](C[C@H](OC)c1ccc(F)cc1)C(=O)NO [Compound 167389, (2R)-2-((2S)-2-(4-fluorophenyl)-2-methoxyethyl)-N-hydroxyhexanamide]",75600
3,"CO[C@H](C[C@H](CCN(C)CCN(C)CCCc1ccccc1)C(=O)NO)c1ccc(F)cc1 [Compound 168082, (2S,4R)-4-(4-fluorophenyl)-N-hydroxy-4-methoxy-2-(2-(methyl(2-(methyl(3-phenylpropyl)amino)ethyl)amino)ethyl)butanamide]",820
4,"CO[C@H](C[C@H](CC1CC1)C(=O)NO)c1ccc(F)cc1 [Compound 167433, (2S,4R)-2-(cyclopropylmethyl)-4-(4-fluorophenyl)-N-hydroxy-4-methoxybutanamide]",1400
5,"CO[C@H](C[C@H](CCN(C)Cc1ccc(-c2ccc(F)c(C)c2)cc1)C(=O)NO)c1ccc(F)cc1 [Compound 168037, (2S,4R)-2-(2-(((4′-fluoro-3′-methylbiphenyl-4-yl)methyl)(methyl)amino)ethyl)-4-(4-fluorophenyl)-N-hydroxy-4-methoxybutanamide]",680
6,"CO[C@H](C[C@H](CCN1CCCC1)C(=O)NO)c1ccc(F)cc1 [Compound 167923, (2S,4R)-4-(4-fluorophenyl)-N-hydroxy-4-methoxy-2-(2-(pyrrolidin-1-yl)ethyl)butanamide]",970
7,"COC(CCC(=O)NO)c1ccc(-c2ccccc2)cc1 (centres unmarked) [Compound 167506, 4-(biphenyl-4-yl)-N-hydroxy-4-methoxybutanamide]",85100
8,"CO[C@H](C[C@H](CCN1CCC(Cc2ccccc2)CC1)C(=O)NO)c1ccc(F)cc1 [Compound 167940, (2S,4R)-2-(2-(4-benzylpiperidin-1-yl)ethyl)-4-(4-fluorophenyl)-N-hydroxy-4-methoxybutanamide]",400
9,"CCOC(CCC(=O)NO)c1ccc(F)cc1 (racemic) [Compound 167173, 4-ethoxy-4-(4-fluorophenyl)-N-hydroxybutanamide]",171000
10,"CO[C@H](C[C@H](CCN1CCOCC1)C(=O)NO)c1ccc(F)cc1 [Compound 167829, (2S,4R)-4-(4-fluorophenyl)-N-hydroxy-4-methoxy-2-(2-morpholinoethyl)butanamide]",5700
11,"CCCC[C@@H](C[C@H](OC)c1ccc(F)cc1)C(=O)NO [Compound 167390, (25)-2-((2S)-2-(4-fluorophenyl)-2-methoxyethyl)-N-hydroxyhexanamide]",224000
12,"CO[C@H](C[C@H](C)C(=O)NO)c1ccc(F)cc1 [Compound 167297, (2S,4R)-4-(4-fluorophenyl)-N-hydroxy-4-methoxy-2-methylbutanamide]",2300
13,"CO[C@H](C[C@H](CCCCN1CCN(Cc2ccccc2)CC1)C(=O)NO)c1ccc(F)cc1 [Compound 168226, (S)-6-(4-benzylpiperazin-1-yl)-2-((R)-2-(4-fluorophenyl)-2-methoxyethyl)-N-hydroxyhexanamide]",580
14,"CCC[C@@H](C[C@@H](OC)c1ccc(F)cc1)C(=O)NO [Compound 167432, (S)-2-((R)-2-(4-fluorophenyl)-2-methoxyethyl)-N-hydroxypentanamide]",1570
15,"CCCC[C@@H](C[C@@H](OC)c1ccc(F)cc1)C(=O)NO [Compound 167336, (S)-2-((R)-2-(4-fluorophenyl)-2-methoxyethyl)-N-hydroxyhexanamide]",1900
16,"CO[C@H](C[C@H](CCN1CCC[C@@H](CO)C1)C(=O)NO)c1ccc(F)cc1 [Compound 168059, (2S,4R)-4-(4-fluorophenyl)-N-hydroxy-2-(2-((R)-3-(hydroxymethyl)piperidin-1-yl)ethyl)-4-methoxybutanamide]",600
17,"CO[C@H](C[C@H](CCN1CCCCC1)C(=O)NO)c1ccc(F)cc1 [Compound 167889, (2S,4R)-4-(4-fluorophenyl)-N-hydroxy-4-methoxy-2-(2-(piperidin-1-yl)ethyl)butanamide]",1500
18,"CO[C@H](C[C@H](CCN1CCN(Cc2ccccc2)CC1)C(=O)NO)c1ccc(F)cc1 [Compound 167962, (2S,4R)-2-(2-(4-benzylpiperazin-1-yl)ethyl)-4-(4-fluorophenyl)-N-hydroxy-4-methoxybutanamide]",1900
19,"CCN(CC)CC[C@@H](C[C@@H](OC)c1ccc(F)cc1)C(=O)NO [Compound 167995, (2S,4R)-2-(2-(diethylamino)ethyl)-4-(4-fluorophenyl)-N-hydroxy-4-methoxybutanamide]",2200
20,"CO[C@H](C[C@H](CCCCNCc1ccc(C)o1)C(=O)NO)c1ccc(F)cc1 [Compound 168228, (S)-2-((R)-2-(4-fluorophenyl)-2-methoxyethyl)-N-hydroxy-6-((5-methylfuran-2-yl)methylamino)hexanamide]",2800
21,"CO[C@H](C[C@H](C/C=C/C(c1ccccc1)c1ccccc1)C(=O)NO)c1ccc(F)cc1 [Compound 167371, (2S,4E)-2-((2R)-2-(4-fluorophenyl)-2-methoxyethyl)-N-hydroxy-6,6-diphenylhex-4-enamide]",14000
22,"CO[C@H](C[C@H](CCN(C)c1ccc(-c2ccc(F)c(C)c2)cc1)C(=O)NO)c1ccc(F)cc1 [Compound 168038, (2S,4R)-2-(2-((4′-fluoro-3′-methylbiphenyl-4-yl)(methyl)amino)ethyl)-4-(4-fluorophenyl)-N-hydroxy-4-methoxybutanamide]",910
23,"CO[C@H](C[C@H](CCN1CCC(c2ccccc2)CC1)C(=O)NO)c1ccc(F)cc1 [Compound 167987, (2S,4R)-4-(4-fluorophenyl)-N-hydroxy-4-methoxy-2-(2-(4-phenylpiperidin-1-yl)ethyl)butanamide]",760
24,"CO[C@H](C[C@H](CCN1CCCCCC1)C(=O)NO)c1ccc(F)cc1 [Compound 167911, (2S,4R)-2-(2-(azepan-1-yl)ethyl)-4-(4-fluorophenyl)-N-hydroxy-4-methoxybutanamide]",69500
25,"CO[C@H](C[C@H](CCN(C)Cc1cccc(Br)c1)C(=O)NO)c1ccc(F)cc1 [Compound 168001, (2S,4R)-2-(2-((3-bromobenzyl)(methyl)amino)ethyl)-4-(4-fluorophenyl)-N-hydroxy-4-methoxybutanamide]",1200
26,"COC(CCC(=O)NO)c1cccc(C)c1C (centres unmarked) [Compound 167495, 4-(2,3-dimethylphenyl)-N-hydroxy-4-methoxybutanamide]",269000
27,"CCCCN(C)CC[C@@H](C[C@@H](OC)c1ccc(F)cc1)C(=O)NO [Compound 167828, (2S,4R)-2-(2-(butyl(methyl)amino)ethyl)-4-(4-fluorophenyl)-N-hydroxy-4-methoxybutanamide]",1100
28,"CO[C@H](C[C@H](CCN1CCCC(CO)C1)C(=O)NO)c1ccc(F)cc1 (stereo partly drawn) [Compound 167885, (2S,4R)-4-(4-fluorophenyl)-N-hydroxy-2-(2-(3-(hydroxymethyl)piperidin-1-yl)ethyl)-4-methoxybutanamide]",760
29,"COC(CCC(=O)NO)c1ccc(C)c(F)c1 (centres unmarked) [Compound 167463, 4-(3-fluoro-4-methylphenyl)-N-hydroxy-4-methoxybutanamide]",65600
